For test [1], the system named is CFA-induced arthritis ICR mice. Nature of the test: Paw withdraw threshold (von Frey Filament) over time after single oral administration in CFA-induced arthritis mice. The settings on record: for time after administration of best antinociceptive effect: oral, peptide 3 mg/kg, morphine 10 mg/kg, PWT at 0, 30, 60, 90, 120 min, effect started to decrease at 120 min.
A further test concerns IL-6. Nature of the test: Serum IL-6 by ELISA in CFA-induced arthritis mice after weekly oral administration. The format is in vivo. The following applies: 3 mg/kg oral once a week, 4th to 12th week; serum on 12th week; vs control group; FIG. 2. On the procedure: (§1) On the other hand, the mice administered with water were served as the control group, which also comprised 6 mice. The mice in the experimental group and the control group were sacrificed on the 12th week after administration. The serum collection is conducted by cardiac puncture. The Mouse TNF-α Quantikine ELISA Kit (R&D System, MTA00B), Mouse IL-6 Quantikine ELISA Kit (R&D System, M600B) and enzyme-linked immunosorbent assay (ELISA) were used to determine and collect the serum concentration of TNF-α and IL-6 of mice in the experimental group and the control group.
In general terms: ELISA stands for enzyme-linked immunosorbent assay.

A further test concerns TNF-α. Description: Serum TNF-α by ELISA in CFA-induced arthritis mice after weekly oral administration. The format is in vivo. The settings on record: 3 mg/kg oral once a week, 4th to 12th week; serum on 12th week; FIG. 1. On the procedure:
as §1

For test [2], the system named is CFA-induced arthritis ICR mice. Nature of the test: Paw withdraw threshold (von Frey Filament) on weekly oral administration, 4th to 12th week, in CFA-induced arthritis mice. The format is in vivo. The following applies: 1 mg/kg oral once a week, 90 min after administration, increased from 0.4 g at 3rd week, FIG. 6. From the text: Two dosage groups both contained 6 mice. […] The control group also contained 6 mice.

For test [3], the system named is CFA-induced arthritis ICR mice. Description: Paw withdraw threshold (von Frey Filament) after low oral doses (μg/kg) in CFA-induced arthritis mice. The settings on record: 90 min after administration; for PWT value of ipsilateral hind paw: rose from 0.065 g, FIG. 7; for PWT value of contralateral paw: rose from 0.32 g, FIG. 8. The format is in vivo. The source says: Every dosage group contained 6 mice.

In test [4] the test system is C57BL/6JNarl male mice. Description: Radiant heat tail-flick test. It is filed as in vivo. The settings on record: oral doses of 0.1 μg/kg, 0.3 μg/kg, 0.1 mg/kg, 1 mg/kg, 3 mg/kg and 10 mg/kg, among 0.01 μg/kg to 10 mg/kg tested; mean latency 10-90 min; FIG. 9. On the procedure: (§2) For conducting nociceptive pain and acid-induced chronic widespread pain experiments, C57BL/6JNarl male mice (20 to 25 g) were housed in an environment with temperature control (24±0.5° C.) and 12-hour light-dark cycle (lights on during 08:00-20:00) and allowed free access to standard laboratory food and tap water. Animals were allowed to acclimatize for 20 to 30 min prior to experimental manipulations. Animal care and handling procedures were adopted in accordance with the International Association for the Study of Pain guidelines for those animals used in pain research, and the procedures were approved by the Committee for Ethics in Animal Research.
The radiant heat tail-flick test was modified in accordance with F. E. D'Amour, D. L. Smith, A method for determining loss of pain sensation. The Journal of Pharmacology and Experimental Therapeutics 72, 74-79 (1941). The 5 to 12 mice from Preparation Example 3 were placed and acclimatized in the restrainers for 30 min prior to the tail-flick test. […] The latency was recorded every 10 min during the indicated time period (10-90 min) after oral administration with different dosages of the peptide of SEQ ID NO: 1 (0.01 μg/kg, 0.03 μg/kg, 0.1 μg/kg, 0.3 μg/kg, 1 μg/kg, 0.01 mg/kg, 0.1 mg/kg, 1 mg/kg, 3 mg/kg, and 10 mg/kg). Then the mean latency during 10-90 min was calculated. […]
(In hot-plate and tail-flick tests a longer latency is read as antinociception.)

Test [5] deals with C57BL/6JNarl male mice. Description: Acid-induced abdominal constriction (writhing) assay. The format is in vivo. The settings on record: oral doses of 1 μg/kg and 10 mg/kg, among 0.1 μg/kg to 10 mg/kg tested; 10 min before 1% acetic acid; FIG. 9. On the procedure:
as §2
Acid-induced abdominal constriction assay was performed in accordance with H. O. Collier, L. C. Dinneen, C. A. Johnson, C. Schneider, The abdominal constriction response and its suppression by analgesic drugs in the mouse. Br J Pharmacol Chemother 32, 295-310 (1968). In general, the mice from Preparation Example 3 were placed in a small observation chamber and habituated for 20 min. […] The numbers of abdominal constrictions in 30 min after acid injection were counted and the mean constriction numbers of mice of each group were calculated. […]
(In general: Writhing tests count abdominal constrictions after an irritant is injected.)

Each structure is given as a SMILES string. Non-standard residues stand in square brackets, D forms with d. Residues, ends and D or L forms follow the SMILES beside them. pGlu = O=C1CC[C@@H](C(=O)O)N1

`CN1CC[C@]23c4c5ccc(O)c4O[C@H]2[C@@H](O)C=C[C@H]3[C@H]1C5` [morphine, reference compound]: the “time after administration of best antinociceptive effect” value in test [1] came to 90 min.

Take `CC(C)[C@H](NC(=O)[C@H](C)NC(=O)[C@@H](NC(=O)[C@H](CCC(=O)O)NC(=O)[C@@H]1CCC(=O)N1)[C@@H](C)O)C(=O)N[C@@H](CO)C(=O)N[C@@H](CO)C(=O)N[C@@H](Cc1c[nH]cn1)C(=O)N[C@@H](CCC(=O)O)C(=O)N[C@@H](CCC(N)=O)C(=O)N[C@@H](CC(=O)O)C(=O)O` [peptide of SEQ ID NO: 1, Glp Glu Thr Ala Val Ser Ser His Glu Gln Asp] ([pGlu]ETAVSSHEQD-OH): the “serum concentration of IL-6” value with IL-6 is recorded as “decreased compared to the control group”. In addition, the “serum concentration of TNF-α” value with TNF-α is reported as “not detected”. Besides, the “PWT value of contralateral paw” value in test [2] was 0.6˜1.2 g; in test [3] (0.3 μg/kg oral), 1 g; in test [3] (1 μg/kg oral) it was 1.4 g; in test [3] (3 μg/kg oral) it was 1 g; in test [1] (peptide 3 mg/kg oral, at 90 min, rose from 0.5±0.047 g, FIG. 4), 1.35 ± 0.193 g. For the same molecule, the “PWT value of ipsilateral hind paw” value in test [3] (0.3 μg/kg oral) is 1 g; in test [3] (1 μg/kg oral) it was 0.6 g; in test [3] (3 μg/kg oral) it was 0.16 g; in test [1] (peptide 3 mg/kg oral, at 90 min, rose from 0.07 g, FIG. 3), 0.9 ± 0.156 g. Also, in the test on C57BL/6JNarl male mice [4], the “antinociceptive effect in the radiant heat tail-flick test” value was “best antinociceptive effect”. The “antinociceptive effect in the acid-induced writhing experiment” value with C57BL/6JNarl male mice [5] is “best antinociceptive effect”. For the same molecule, the “time after administration of best antinociceptive effect” value in test [1] was determined as 90 min. In addition, the “antinociceptive effect compared with morphine” value in test [1] (peptide 3 mg/kg oral vs morphine 10 mg/kg oral, a lower amount was required) is listed as “antinociceptive effect similar to morphine”.

The record behind these values is US20220119447A1, “PEPTIDE AND FOR TREATING INFLAMMATORY DISEASE AND PAIN USING THE SAME” (PELL BIO-MED TECHNOLOGY CO., LTD., priority 2019, published 2022).
